Source: ChEMBL document CHEMBL1201862, “PubChem BioAssay data set” (2004)
Activity calls are given as the source filed them.

Legend:
[1] = test system: P388/ADR; experiment: cells; format: functional
[2] = test system: P388; experiment: cells; format: functional
[3] = test system: SN12K1; experiment: cells; format: functional
[4] = molecular target: T1, Neuropeptides B/W receptor type 1 (Homo sapiens, UniProt P48145); experiment: Fluorescence-based dose response cell-based high throughput screening assay to identify antagonists of the G-protein coupled receptor 7 (GPR7). [Related pubchem assays: 1952 (Screening assay (GPR7 antagonists).), 1880 (Summary AID.)]; format: functional
T1 sequence (P48145 whole entry): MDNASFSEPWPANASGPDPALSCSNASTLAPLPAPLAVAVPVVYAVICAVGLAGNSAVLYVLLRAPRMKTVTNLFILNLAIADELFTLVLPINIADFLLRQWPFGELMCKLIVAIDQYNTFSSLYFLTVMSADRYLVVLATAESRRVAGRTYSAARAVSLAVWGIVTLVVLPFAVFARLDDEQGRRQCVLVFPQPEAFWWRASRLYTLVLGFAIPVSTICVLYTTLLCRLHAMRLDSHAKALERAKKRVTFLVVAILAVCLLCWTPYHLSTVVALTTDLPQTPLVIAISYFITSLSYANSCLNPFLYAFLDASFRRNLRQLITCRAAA

[5] = molecular target: Melanin-concentrating hormone receptor 1 (Homo sapiens, UniProt Q99705); experiment: Fluorescence-based counterscreen for antagonists of the G-protein coupled receptor 7 (GPR7): cell-based high throughput dose response assay to identify antagonists of the melanin-concentrating hormone receptor 1 (MCHR1).; format: functional
Chain of Melanin-concentrating hormone receptor 1 (Q99705 whole entry): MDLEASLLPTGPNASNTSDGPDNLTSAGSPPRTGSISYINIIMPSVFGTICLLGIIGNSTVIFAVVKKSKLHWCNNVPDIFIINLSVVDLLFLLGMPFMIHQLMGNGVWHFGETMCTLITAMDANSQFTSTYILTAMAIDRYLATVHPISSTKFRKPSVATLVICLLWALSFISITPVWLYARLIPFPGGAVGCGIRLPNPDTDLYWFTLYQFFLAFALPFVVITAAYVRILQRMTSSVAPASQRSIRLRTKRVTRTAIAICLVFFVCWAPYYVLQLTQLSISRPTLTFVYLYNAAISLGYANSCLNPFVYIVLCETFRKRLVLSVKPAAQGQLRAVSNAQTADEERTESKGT

[6] = molecular target: Ras and Rab interactor 1/Tyrosine-protein kinase ABL1 (Homo sapiens, UniProt P00519+Q13671); format: functional;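 note: biochemical TR-FRET dose-response test measuring inhibition of binding between Rin1 and Abl proteins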
Chain of Ras and Rab interactor 1/Tyrosine-protein kinase ABL1 (P00519 whole entry): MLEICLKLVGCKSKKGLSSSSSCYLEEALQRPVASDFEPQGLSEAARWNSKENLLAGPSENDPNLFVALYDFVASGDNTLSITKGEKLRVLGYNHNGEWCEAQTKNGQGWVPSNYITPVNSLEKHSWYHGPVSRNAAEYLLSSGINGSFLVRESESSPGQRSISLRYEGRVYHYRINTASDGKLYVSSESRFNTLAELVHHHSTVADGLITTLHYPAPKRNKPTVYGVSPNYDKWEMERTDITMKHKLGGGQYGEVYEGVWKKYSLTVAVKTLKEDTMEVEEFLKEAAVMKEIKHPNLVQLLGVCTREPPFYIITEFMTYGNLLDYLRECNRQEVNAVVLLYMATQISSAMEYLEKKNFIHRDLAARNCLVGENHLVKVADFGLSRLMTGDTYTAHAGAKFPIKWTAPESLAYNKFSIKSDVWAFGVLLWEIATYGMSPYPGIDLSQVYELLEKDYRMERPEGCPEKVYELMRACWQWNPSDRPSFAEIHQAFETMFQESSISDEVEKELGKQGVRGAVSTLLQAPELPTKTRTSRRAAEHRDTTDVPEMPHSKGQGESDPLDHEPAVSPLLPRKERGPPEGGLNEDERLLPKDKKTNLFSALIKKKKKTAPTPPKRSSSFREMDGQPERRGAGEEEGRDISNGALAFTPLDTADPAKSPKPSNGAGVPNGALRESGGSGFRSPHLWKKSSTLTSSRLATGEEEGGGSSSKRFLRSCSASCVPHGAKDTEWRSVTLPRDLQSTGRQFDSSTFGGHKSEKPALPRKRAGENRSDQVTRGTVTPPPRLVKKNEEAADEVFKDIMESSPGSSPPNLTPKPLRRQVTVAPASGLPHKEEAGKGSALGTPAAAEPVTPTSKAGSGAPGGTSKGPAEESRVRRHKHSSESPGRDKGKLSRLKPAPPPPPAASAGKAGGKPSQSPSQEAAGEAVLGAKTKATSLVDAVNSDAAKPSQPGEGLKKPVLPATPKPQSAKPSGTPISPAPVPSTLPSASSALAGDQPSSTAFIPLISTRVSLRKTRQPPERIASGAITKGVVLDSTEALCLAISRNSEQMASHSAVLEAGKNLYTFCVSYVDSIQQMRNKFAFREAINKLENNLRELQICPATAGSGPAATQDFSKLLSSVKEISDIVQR
Chain of Ras and Rab interactor 1/Tyrosine-protein kinase ABL1 (Q13671 whole entry): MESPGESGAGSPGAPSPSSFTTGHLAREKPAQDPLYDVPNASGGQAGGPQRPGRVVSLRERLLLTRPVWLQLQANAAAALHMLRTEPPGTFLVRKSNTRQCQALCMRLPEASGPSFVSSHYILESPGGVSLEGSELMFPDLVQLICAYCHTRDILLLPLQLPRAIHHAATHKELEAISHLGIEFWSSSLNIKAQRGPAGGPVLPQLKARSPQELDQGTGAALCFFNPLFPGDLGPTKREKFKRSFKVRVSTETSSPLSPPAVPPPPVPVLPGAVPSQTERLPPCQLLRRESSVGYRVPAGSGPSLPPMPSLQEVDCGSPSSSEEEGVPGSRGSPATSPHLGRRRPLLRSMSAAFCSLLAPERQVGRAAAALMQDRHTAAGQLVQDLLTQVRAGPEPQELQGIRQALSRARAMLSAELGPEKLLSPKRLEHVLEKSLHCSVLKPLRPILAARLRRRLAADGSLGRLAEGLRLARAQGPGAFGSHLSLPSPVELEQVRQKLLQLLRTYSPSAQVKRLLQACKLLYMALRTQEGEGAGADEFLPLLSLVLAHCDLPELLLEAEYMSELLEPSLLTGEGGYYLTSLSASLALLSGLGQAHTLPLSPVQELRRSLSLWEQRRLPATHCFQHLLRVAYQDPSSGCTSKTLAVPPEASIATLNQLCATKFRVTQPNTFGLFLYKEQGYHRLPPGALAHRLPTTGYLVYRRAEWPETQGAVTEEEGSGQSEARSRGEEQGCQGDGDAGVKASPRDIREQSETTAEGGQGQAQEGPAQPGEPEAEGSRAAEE

[7] = A Cell Based Secondary Assay To Explore Cytotoxicity of Compounds that Sensitize Mycobacterium Tuberculosis to Beta-Lactam Antibiotics.; format: functional
[8] = molecular target: T2, Polyadenylate-binding protein 1 (Homo sapiens, UniProt P11940); experiment: MLLE domain peptide-binding blockers, IC50 – biochemical, fluorescence polarization, FITC-PAM2 peptide, dose response (AID 602259); format: functional; conditions: read-out: IC50_Mean
T2 sequence (P11940 whole entry, the tested form may be a part): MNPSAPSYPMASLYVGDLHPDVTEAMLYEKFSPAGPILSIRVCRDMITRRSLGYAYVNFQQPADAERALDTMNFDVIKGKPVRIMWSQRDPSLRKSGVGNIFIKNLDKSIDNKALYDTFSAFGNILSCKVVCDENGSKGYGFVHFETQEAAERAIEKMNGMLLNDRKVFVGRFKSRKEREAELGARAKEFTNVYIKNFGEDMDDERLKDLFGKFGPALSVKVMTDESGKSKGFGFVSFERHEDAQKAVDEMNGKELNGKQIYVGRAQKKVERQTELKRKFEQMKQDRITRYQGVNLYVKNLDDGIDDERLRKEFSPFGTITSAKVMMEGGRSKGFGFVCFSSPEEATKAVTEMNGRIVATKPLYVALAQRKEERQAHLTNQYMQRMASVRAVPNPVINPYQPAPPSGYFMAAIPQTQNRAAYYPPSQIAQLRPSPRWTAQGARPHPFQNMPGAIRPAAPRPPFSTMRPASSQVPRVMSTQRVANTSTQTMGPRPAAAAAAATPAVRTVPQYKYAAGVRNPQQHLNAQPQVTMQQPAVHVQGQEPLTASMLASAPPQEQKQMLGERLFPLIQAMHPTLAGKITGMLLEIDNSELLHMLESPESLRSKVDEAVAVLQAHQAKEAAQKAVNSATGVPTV

[9] = A cytotoxicity screen of small molecule inhibitors of the PhoP region in Salmonella typhi identified in the primary screen. [Related pubchem assays: 1850, 1864, 1985 ]; format: functional
[10] = molecular target: T2, Polyadenylate-binding protein 1; experiment: MLLE binding blockers, Cy5 peptide tracer – biochemical, fluorescence polarization, Cy5-PAM2 peptide, secondary, miRNA deadenylation inhibitor project, dose response (AID 602260); format: functional; conditions: read-out: IC50_Mean
[11] = molecular target: Protein Wnt-3a (Mus musculus, UniProt P27467); experiment: antagonism of Wnt3a pathway luciferase reporter – Wnt-LIGHT cells, luminescence, selectivity assay for Gli-SUFU antagonist project, dose response (AID 651570); format: functional; conditions: read-out: IC50_Mean;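 note: Wnt-LIGHT reporter cells stimulated with conditioned medium from Wnt3a-producing cells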
Chain of Protein Wnt-3a (P27467 whole entry, the tested form may be a part): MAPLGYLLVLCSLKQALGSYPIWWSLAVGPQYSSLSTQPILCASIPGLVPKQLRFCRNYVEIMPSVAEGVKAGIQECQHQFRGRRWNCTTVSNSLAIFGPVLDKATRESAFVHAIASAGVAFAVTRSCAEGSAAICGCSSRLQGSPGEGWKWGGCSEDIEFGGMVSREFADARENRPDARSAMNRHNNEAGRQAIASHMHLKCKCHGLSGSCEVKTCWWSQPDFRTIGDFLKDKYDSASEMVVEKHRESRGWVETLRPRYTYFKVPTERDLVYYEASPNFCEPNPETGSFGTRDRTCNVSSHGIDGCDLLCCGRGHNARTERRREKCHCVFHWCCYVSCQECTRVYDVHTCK

[12] = blockers of HIV-1 envelope-mediated cell-cell fusion – cherry-pick, dose response (AID 652057); format: functional, cell-based
[13] = HIV-1 AD8 envelope cell-cell fusion blockers – cherry-pick, dose response (AID 652062); format: functional, cell-based;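 note: luciferase signal from cell-cell fusion driven by HIV-1 clade B AD8 Env; potency is for inhibitors of fusion seen as a drop in luminescence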
[14] = off-target signal loss in HeLa-CEM21 co-culture – HeLa F-luc CTL cells, cherry-picked, counter-screen for HIV-1 Env fusion inhibitor project, dose response (AID 652040); format: functional, cell-based;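 note: potency for signal decrease marking cytotoxic or nonspecific inhibition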
[15] = viability loss in CEM21 cells – cell-based, CellTiter-Glo luminescence, cherry-picked, cytotoxicity control for viral fusion inhibitor project, dose response (AID 652042); format: functional;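 note: potency for signal decrease meaning cytotoxicity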
[16] = Luminescence Cell-Based Dose Retest to Confirm Inhibitors of Cancer Stem Cells. [Related pubchem assays (depositor defined):AID2717, AID2721]; format: functional; conditions: Homo sapiens
[17] = blockers of HIV-1 ZM109 envelope-driven cell-cell fusion – HeLa effector, CEM target cells, luciferase, cherry-pick, dose response (AID 652058); format: functional, cell-based;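 note: luciferase signal from HIV-1 Env mediated cell-cell fusion of effector and target cells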
[18] = intracellular Trypanosoma cruzi inhibitors in host cells – cell-based, plate reader, cherry-pick samples, set 3, dose response (AID 651818); format: functional;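 note: compounds incubated with infected cells for about four days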
[19] = molecular target: T3, Long-chain-fatty-acid--AMP ligase FadD28 (Mycobacterium tuberculosis, UniProt P9WQ59); experiment: Fluorescence polarization aasay to screen for inhibitors that compete for the binding of FadD28 to a bisubstrate Measured in Biochemical System Using Plate Reader - 2147-01_Inhibitor_Dose_CherryPick_Activity.; format: functional, Mycobacterium tuberculosis H37Rv
T3 sequence (P9WQ59 whole entry): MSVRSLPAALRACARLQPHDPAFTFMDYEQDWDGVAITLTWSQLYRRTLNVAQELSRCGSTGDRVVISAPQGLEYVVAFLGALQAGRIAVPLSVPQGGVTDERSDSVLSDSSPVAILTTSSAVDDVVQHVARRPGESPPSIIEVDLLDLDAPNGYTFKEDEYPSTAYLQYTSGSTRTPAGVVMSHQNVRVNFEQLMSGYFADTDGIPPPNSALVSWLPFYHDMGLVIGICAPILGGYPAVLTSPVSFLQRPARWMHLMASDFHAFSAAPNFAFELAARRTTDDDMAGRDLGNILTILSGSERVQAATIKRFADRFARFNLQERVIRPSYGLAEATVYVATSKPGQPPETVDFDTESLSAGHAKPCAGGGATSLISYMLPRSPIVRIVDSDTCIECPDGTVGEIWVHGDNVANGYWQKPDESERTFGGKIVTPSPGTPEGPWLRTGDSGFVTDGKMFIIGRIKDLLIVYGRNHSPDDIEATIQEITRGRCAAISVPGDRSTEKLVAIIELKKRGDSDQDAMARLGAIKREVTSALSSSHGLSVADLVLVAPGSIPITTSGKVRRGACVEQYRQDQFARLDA

[20] = growth inhibition of PfATP4-mutant resistant parasites – NITD609-resistant line, SYBR Green, dry powder, dose response (AID 1159571); format: functional, cell-based;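 note: parasites synchronized at ring stage by sorbitol before testing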
[21] = growth inhibition of yeast DHODH-expressing 3D7 parasites – SYBR Green, dry powder samples, dose response (AID 1159570); format: functional, cell-based;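 note: parasite growth measured after 72 hours of compound exposure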
[22] = P. falciparum Dd2 growth inhibitors, dose response, SYBR Green, cherry-picked samples (AID 1159567); format: functional, cell-based
[23] = Dd2 malaria parasite growth inhibition potency – SYBR Green, dry powder samples, dose response (AID 1159566); format: functional, cell-based;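 note: potency for growth inhibition with lower SYBR green DNA signal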

For `Cn1sc2ccccc2c1=S`, the GI50 ([1]; Mus musculus, P388/ADR) was 0.441 µM (active), the GI50 ([2]; Mus musculus, P388) was 0.294 µM (active) and the GI50 ([3]; Homo sapiens, SN12K1) was 2.79 µM (inactive).
In the case of `CCN(CC(=O)Nc1cccc(C#N)c1)CC(=O)Nc1cccc(OC)c1`, the IC50 [4] is reported as > 43.8 µM (not active) and the IC50 [5] is reported as 27.9 µM (not active).
For `COc1ccc2[nH]c3c(C)c4cc[n+](C)cc4c(C)c3c2c1`, the GI50 [1] was 47.4 µM (inactive), the GI50 [2] was 0.796 µM (active) and the GI50 [3] was 0.287 µM (active).
With `CCN(CC)C(=O)c1ccc(NC(=O)c2cc(S(=O)(=O)N3CCCCCC3)ccc2OC)cc1` the IC50 [6] was 0.618 µM (active).
In the case of `N=C(NC(=O)c1ccccc1NC(=O)c1ccccc1)Nc1nc2ccccc2o1`, the CC50 [7] is reported as > 40 µM (active).
For `Nc1c(-c2ccccc2)sc2ccc3ccccc3[n+]12`, the IC50 [8] was > 66 µM (inactive), the EC50 [9] was > 50 µM (active) and the IC50 [10] was > 66 µM (inactive).
In the case of `C=CCc1cc(Cl)ccc1OCCCNC(C)CC` (configuration not stated), the CC50 [7] is reported as > 40 µM (active).
In the case of `c1cc(N2CCCC2)ccc1C(c1nnnn1C1CCCCC1)N1CCOCC1` (configuration not stated), the EC50 [9] is reported as > 50 µM (active).
In the case of `Cc1ccc(NCC(=O)Nc2cccc(S(=O)(=O)N(C)C)c2)cc1S(=O)(=O)N1CCCCCC1`, the IC50 [11] is reported as 8.18 µM (active).
With `Cc1nc(Nc2nc(O)cc(CSc3nc4ccccc4[nH]3)n2)nc2ccccc12` the AC50 [12] was 6.8 µM (active), the AC50 [13] was 10.3 µM (active) and the AC50 [14] was 8.15 µM (active). For the same molecule, the AC50 [15] was 11.2 µM (active), the AC50 [16] was 3.58 µM (active) and the AC50 [17] was 7.51 µM (active).
In the case of `C[C@@H]1CN([C@@H](C)CO)C(=O)c2cccc(NC(=O)c3nc4ccccc4s3)c2O[C@H]1CN(C)Cc1ccc(C(=O)Nc2ccccc2N)cc1`, the AC50 [18] is reported as 2.09 µM (active).
In the case of `Cc1cccc(NC(=O)Cn2c(=O)oc3cc(S(=O)(=O)N4CCCC4)ccc32)n1`, the AC50 [19] is reported as 34.8 µM (active).
In the case of `C[C@H]1CN([C@@H](C)CO)C(=O)c2cc(NS(=O)(=O)c3ccccc3)ccc2O[C@@H]1CN(C)Cc1ccc(-c2ccccc2)cc1`, the AC50 [18] is reported as 6.29 µM (active).
For `O=C1CCCn2c3ccccc3c3ccnc1c32`, the GI50 ([1]; Mus musculus, P388/ADR) was 20 µM (inactive), the GI50 ([2]; Mus musculus, P388) was 22.6 µM (inactive) and the GI50 ([3]; Homo sapiens, SN12K1) was 39.9 µM (inactive).
In the case of `CC(C)(C)[S+]([O-])N1Cc2cc(C(=O)NCc3ccc(Oc4ccccc4)cc3)nc(-c3cccc(-c4cccc(F)c4)c3)c2[C@@H]1CCO` (some centres not stated), the AC50 [20] is reported as 0.417 µM (active), the AC50 [21] is reported as 0.831 µM (active) and the AC50 [22] is reported as 1.23 µM (active). For the same molecule, the AC50 [23] was 0.658 µM (active).
